Data published in patent publication US20180118721A1, “PYRIMIDINE DERIVATIVES” (Merck Patent GmbH, priority 2015, published 2018).

Biological target: T1, purified human recombinant MTH1 (human MTH1, residues 42-197) (Homo sapiens, UniProt P36639)
T1 construct: human MTH1, residues 42-197, Uniprot-ID: P36639, expressed in E. coli; made in house; host or cells: E. coli
Assay: MTH1 enzymatic assay (luminescence-based, PPiLight)
Assay type: biochemical
Details: 6 μM 8-oxo-dGTP, Table 1, grouped
Description: The IC50 value was determined by a MTH1 enzymatic assay. The assay comprises the principal steps of incubating a mixture of MTH1, the compound in question at different concentrations and 8-oxo-2′-deoxyguanosine-5′-triphosphate (8-oxo-dGTP) in assay buffer. Nucleotide triphosphate hydrolysis by MTH1, i.e. decomposition of 8-oxo-2′-deoxyguanosine-5′-triphosphate, produces 8-oxo-2′-deoxyguanosine-5′-monophosphate (8-oxo-dGMP) and pyrophosphate (PPi). The amount of generated pyrophosphate (PPi) is then measured by a bioluminescent reaction. In detail: The MTH1 (human mutT homologue 1) enzymatic assay is performed as a luminescence-based 384-well assay. […] The assay buffer contains 100 mM Tris-acetate pH 7.5, 40 mM NaCl, 10 mM Mg(OAc)2, 0.005% Tween 20 and 2 mM dithiothreitol (DTT). […] Then, in a second step, the substrate 8-oxo-dGTP is added and the reaction mixture is incubated for 30 minutes at 22° C. The pharmacologically relevant assay volume is 5 PI. The final concentrations in the assay during incubation of the reaction mixture are 0.1-0.2 nM, typically 0.1 nM, MTH1 and 6 μM 8-oxo-dGTP. After incubation of the reaction mixture, the generation of pyrophosphate (PPi) as a result of nucleotide triphosphate (8-oxo-dGTP) hydrolysis by MTH1 is detected using the PPiLight inorganic pyrophosphate assay kit (Lonza) (third step). 2 to 5 μl, such as 3 to 5 μl, typically 3 or 4 μl, for instance 4 μl, of a 1:1 mixture of PPiLight converting reagent (AMP) and PPiLight detection reagent are added to the reaction mixture. In the presence of pyrophosphate, the detection reagent catalyzes the conversion of AMP to ATP. Luciferase then produces light from the newly formed ATP and luciferin. The amount of light produced is directly proportional to the amount of PPi in the sample. Following signal development for 1 h the plates are analysed in an EnVision (PerkinElmer) microplate reader using the ultra sensitive luminescence option. Data are processed employing the Genedata Screener software. In particular, IC50 values are determined in the usual manner (using the Hill Equation) by fitting a dose-response curve to the data points using nonlinear regression analysis.
Hill Equation: Y=S0+(Sinf−S0)/(1+(10^logIC50/10^c)^n); Y: luminescence signal (response), S0: activity level at zero concentration of test compound, Sinf=activity level at infinite concentration, Hill coefficient n=measure of the slope at IC50, c=concentration in logarithmic units corresponding to the values on the x-axis of the dose response curve plot

Row | Compound | IC50 [nM]
1 | Nc1nc(NC2CC2)cc(N2CC[C@](O)(c3ccccc3)C2)n1 (single isomer, unassigned) [Example 37] | 1 to 100
2 | Nc1nc(NC2CC2)cc(N2CC[C@@](O)(c3ccccc3)C2)n1 (single isomer, unassigned) [Example 38] | 1 to 100
3 | CNc1cc(N2CCC[C@@](O)(c3ccccc3)C2)nc(N)n1 (single isomer, unassigned) [Example 90] | 1 to 100
4 | CNc1cc(N2CCCCC2Cc2ccccc2OC)nc(N)n1 (single isomer, unassigned) [Example 106] | < 1
5 | CNc1cc(N2CCC(CO)C2)nc(N)n1 (stereo not drawn) [Example 1, [1-(2-amino-6-methylamino-pyrimidin-4-yl)-pyrrolidin-3-yl]-methanol] | < 1
6 | Nc1nc(NC2CC2)cc(N2CCC(CO)C2)n1 (stereo not drawn) [Example 2, [1-(2-amino-6-cyclopropyl amino-pyrimidin-4-yl)-pyrrolidin-3-yl]-methanol] | < 1
7 | Nc1nc(NC2CC2)cc(N2CCC(F)(F)C2)n1 [Example 4, N^4-cyclopropyl-6-(3,3-difluoro-pyrrolidin-1-yl)-pyrimidine-2,4-diamine] | 1 to 100
8 | Nc1nc(NC2CC2)cc(N2CCC(O)C2)n1 (stereo not drawn) [Example 6, 1-(2-amino-6-cyclopropylamino-pyrimidin-4-yl)-pyrrolidin-3-ol] | 1 to 100
9 | CNc1cc(N2CCC(OC)C2)nc(N)n1 (stereo not drawn) [Example 9, 86-(3-methoxy-pyrrolidin-1-yl)-N^4-methyl-pyrimidine-2,4-diamine-formate] | < 1
10 | COC1CCN(c2cc(NC3CC3)nc(N)n2)C1 (stereo not drawn) [Example 10, N^4-cyclopropyl-6-(3-methoxy-pyrrolidin-1-yl)-pyri midine-2,4-diamine-formate] | 1 to 100
11 | Nc1nc(NC2CC2)cc(N2CCC[C@@H]2CO)n1 [Example 11, [(R)-1-(2-amino-6-cyclopropylamino-pyrimidin-4-yl)-pyrrolidin-2-yl]-methanol-formate] | 1 to 100
12 | CNc1cc(N2CCC[C@H]2CO)nc(N)n1 [Example 12, [(S)-1-(2-amino-6-methylamino-pyrimidin-4-yl)-pyrrolidin-2-yl]-methanol] | 1 to 100
13 | Nc1nc(NC2CC2)cc(N2CCC[C@H]2CO)n1 [Example 13, [(S)-1-(2-amino-6-cyclopropylamino-pyrimidin-4-yl)-pyrrolidin-2-yl]-methanol] | 1 to 100
14 | Nc1nc(NC2CC2)cc(N2CCCC2Cc2ccccc2Cl)n1 (stereo not drawn) [Example 36, 6-[2-(2-Chloro-benzyl)-pyrrolidin-1-yl]-N4-cyclopropyl-pyrimidine-2,4-diamine] | < 1
15 | CC1CCN(c2cc(NC3CC3)nc(N)n2)C1C (stereo not drawn) [Example 39, N4-Cyclopropyl-6-(2,3-dimethyl-pyrrolidin-1-yl)-pyrimidine-2,4-diamine] | 1 to 100
16 | CCC1(O)CCN(c2cc(NC3CC3)nc(N)n2)C1 (stereo not drawn) [Example 40, 1-(2-Amino-6-cyclopropylamino-pyrimidin-4-yl)-3-ethyl-pyrrolidin-3-ol] | 1 to 100
17 | CC1C(c2ccccc2)CCN1c1cc(NC2CC2)nc(N)n1 (stereo not drawn) [Example 41, N4-Cyclopropyl-6-(2-methyl-3-phenyl-pyrrolidin-1-yl)-pyrimidine-2,4-diamine] | 1 to 100
18 | Nc1nc(NC2CC2)cc(N2CCC(O)(C(F)(F)F)C2)n1 (stereo not drawn) [Example 42, 1-(2-Amino-6-cyclopropylamino-pyrimidin-4-yl)-3-trifluoromethyl-pyrrolidin-3-ol] | 1 to 100
19 | NC(=O)[C@@H]1CCN(c2cc(NC3CC3)nc(N)n2)C1 [Example 59, (R)-1-(2-Amino-6-cyclopropylamino-pyrimidin-4-yl)-pyrrolidine-3-carboxylic acid amide] | 1 to 100
20 | CNc1cc(N2CC[C@@H](O)C2)nc(N)n1 [Example 60, (R)-1-(2-Amino-6-methylamino-pyrimidin-4-yl)-pyrrolidin-3-ol] | 1 to 100
21 | NC(=O)[C@H]1CCN(c2cc(NC3CC3)nc(N)n2)C1 [Example 61, (S)-1-(2-Amino-6-cyclopropylamino-pyrimidin-4-yl)-pyrrolidine-3-carboxylic acid amide] | 1 to 100
